According to US9770435B2 (EUROSCREEN SA, priority 2013, dated 2017):

Tested on: TNFα secretion from LPS-stimulated PBMC
Experiment: Cytokines release from peripheral blood mononuclear cell assay: TNFα
Format: cell-based
Settings: Homo sapiens, 3 h
Experimental: Data are presented as percentage of LPS response.
Data are presented as mean±SEM and the final concentration of each tested compound in the assay is 10 μM. Statistical analysis was performed by 2-way ANOVA followed by Dunnet's comparison to vehicle group, ****p<0.0001.
Cytokines Release from Peripheral Blood Mononuclear Cell Assay
Peripheral blood mononuclear cells (PBMC) are purified from heparinised fresh blood sample on a Lymphoprep gradient. PBMC are plated in 96-well assay plate (2×10^5 cells/well) and stimulated with or without LPS (100 ng/ml) and increasing concentration of compounds of the invention for 3 hours at 37° C. Cell supernatants are recovered after centrifugation and human soluble TNFα, IL-6 or other cytokines, are quantified using ELISA assay (R&D system) according manufacturer's recommendation.
Additional results with compounds of the invention are set out in tabulated form (Table 5).

## COc1ccc(C#N)cc1-c1ccc(C(=O)N2[C@@H](c3ccccc3Cl)CC[C@H]2C(=O)O)cc1 [Compound 345, (2S,5R)-5-(2-chlorophenyl)-1-(5′-cyano-2′-methoxy-[1,1′-biphenyl]-4-carbonyl)pyrrolidine-2-carboxylic acid]
  IC50: 0.99 µM

## N#Cc1ccccc1-c1ccc(C(=O)N2[C@@H](c3ccccc3Cl)CC[C@H]2C(=O)O)cc1F [Compound 390, (2S,5R)-5-(2-chlorophenyl)-1-(2′-cyano-2-fluoro-[1,1′-biphenyl]-4-carbonyl)pyrrolidine-2-carboxylic acid]
  IC50: 5.52 µM

## COc1ncc(-c2ccc(C(=O)N3[C@@H](c4ccccc4Cl)CC[C@H]3C(=O)O)cc2Cl)c(OC)n1 [Compound 325, (2S,5R)-1-(3-chloro-4-(2,4-dimethoxypyrimidin-5-yl)benzoyl)-5-(2-chlorophenyl)pyrrolidine-2-carboxylic acid]
  IC50: 6 µM

## COc1cc(C#N)c(-c2ccc(C(=O)N3[C@@H](c4ccccc4Cl)CC[C@H]3C(=O)O)cc2)cc1OC [Compound 361, (2S,5R)-5-(2-chlorophenyl)-1-(2′-cyano-4′,5′-dimethoxy-[1,1′-biphenyl]-4-carbonyl)pyrrolidine-2-carboxylic acid]
  IC50: 5.19 µM

## COc1ncc(-c2ccc(C(=O)N3[C@@H](c4ccccc4Cl)CC[C@H]3C(=O)O)cc2)c(OC)n1 [Compound 161, (2S,5R)-5-(2-chlorophenyl)-1-(4-(2,4-dimethoxypyrimidin-5-yl)benzoyl)pyrrolidine-2-carboxylic acid]
  IC50: 11.8 µM

## Cc1ccc(C#N)cc1-c1ccc(C(=O)N2[C@@H](c3cccc(F)c3F)CC[C@H]2C(=O)O)cc1 [Compound 421, (2S,5R)-1-(5′-cyano-2′-methyl-[1,1′-biphenyl]-4-carbonyl)-5-(2,3-difluorophenyl)pyrrolidine-2-carboxylic acid]
  IC50: 2.93 µM
